Measurements taken from PubChem BioAssay (NCI).
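48-hour exposure; five concentrations; linearly interpolated endpoints. GI50: concentration for 50% inhibition of growth. TGI: total growth inhibition.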

Columns and labels:
Test in all cases: DTP human tumour cell line panel, 48 h
LOX IMVI melanoma = system: LOX IMVI melanoma
KM12 colon = system: KM12 colon
K-562 leukemia = system: K-562 leukemia
MALME-3M melanoma = system: MALME-3M melanoma
OVCAR-8 ovarian = system: OVCAR-8 ovarian
TK-10 renal = system: TK-10 renal
HOP-62 NSCLC = system: HOP-62 NSCLC
SF-539 CNS = system: SF-539 CNS
NCI-H460 lung = system: NCI-H460 lung
RXF 393 renal = system: RXF 393 renal
MCF7 breast = system: MCF7 breast
PC-3 prostate = system: PC-3 prostate
SF-295 CNS = system: SF-295 CNS
OVCAR-4 ovarian = system: OVCAR-4 ovarian
SK-OV-3 ovarian = system: SK-OV-3 ovarian
786-0 renal = system: 786-0 renal
EKVX NSCLC = system: EKVX NSCLC
IGROV1 ovarian = system: IGROV1 ovarian
HCC-2998 colon = system: HCC-2998 colon
CAKI-1 renal = system: CAKI-1 renal
MDA-MB-435 = system: MDA-MB-435
A498 renal = system: A498 renal
DU-145 prostate = system: DU-145 prostate
MDA-MB-231 breast = system: MDA-MB-231 breast
HL-60(TB) leukemia = system: HL-60(TB) leukemia
OVCAR-5 ovarian = system: OVCAR-5 ovarian
A549 NSCLC = system: A549 NSCLC
SNB-75 CNS = system: SNB-75 CNS
SK-MEL-28 melanoma = system: SK-MEL-28 melanoma
SN12C renal = system: SN12C renal
SK-MEL-5 melanoma = system: SK-MEL-5 melanoma
HCT-116 colon = system: HCT-116 colon
SF-268 CNS = system: SF-268 CNS
COLO 205 colon = system: COLO 205 colon
ACHN renal = system: ACHN renal
HT29 colon = system: HT29 colon
CCRF-CEM leukemia = system: CCRF-CEM leukemia
NCI-H522 lung = system: NCI-H522 lung
HCT-15 colon = system: HCT-15 colon
SNB-19 CNS = system: SNB-19 CNS
UACC-257 melanoma = system: UACC-257 melanoma
SK-MEL-2 melanoma = system: SK-MEL-2 melanoma
T-47D breast = system: T-47D breast
U251 CNS = system: U251 CNS
UACC-62 melanoma = system: UACC-62 melanoma
HS 578T breast = system: HS 578T breast
OVCAR-3 ovarian = system: OVCAR-3 ovarian
SR leukemia = system: SR leukemia
SW-620 colon = system: SW-620 colon
HOP-92 NSCLC = system: HOP-92 NSCLC
M14 melanoma = system: M14 melanoma
NCI/ADR-RES ovarian = system: NCI/ADR-RES ovarian
UO-31 renal = system: UO-31 renal
NCI-H226 lung = system: NCI-H226 lung
BT-549 breast = system: BT-549 breast
MOLT-4 leukemia = system: MOLT-4 leukemia
NCI-H23 lung = system: NCI-H23 lung
RPMI-8226 leukemia = system: RPMI-8226 leukemia

Which results are given for `O=C(Nc1cccc(-c2nc(-c3ccc(NC(=O)c4cccs4)cc3Cl)no2)c1)Nc1ccc(NC(=O)C2CC2)c(C(F)(F)F)c1`?
GI50 (LOX IMVI melanoma): 185 nM; TGI (LOX IMVI melanoma): 356 nM; GI50 (KM12 colon): 317 nM; TGI (KM12 colon): 1050 nM; GI50 (K-562 leukemia): 296 nM; TGI (K-562 leukemia): 1670 nM; GI50 (MALME-3M melanoma): 183 nM; TGI (MALME-3M melanoma): 376 nM; GI50 (OVCAR-8 ovarian): 311 nM; TGI (OVCAR-8 ovarian): 1330 nM; GI50 (TK-10 renal): 338 nM; TGI (TK-10 renal): 1540 nM; GI50 (HOP-62 NSCLC): 241 nM; TGI (HOP-62 NSCLC): 624 nM; GI50 (SF-539 CNS): 188 nM; TGI (SF-539 CNS): 381 nM; GI50 (NCI-H460 lung): 204 nM; TGI (NCI-H460 lung): 412 nM; GI50 (RXF 393 renal): 214 nM; TGI (RXF 393 renal): 494 nM; GI50 (MCF7 breast): 220 nM; TGI (MCF7 breast): 643 nM; GI50 (PC-3 prostate): 209 nM; TGI (PC-3 prostate): 460 nM; GI50 (SF-295 CNS): 191 nM; TGI (SF-295 CNS): 370 nM; GI50 (OVCAR-4 ovarian): 223 nM; TGI (OVCAR-4 ovarian): 492 nM; GI50 (SK-OV-3 ovarian): 795 nM; TGI (SK-OV-3 ovarian): 2990 nM; GI50 (786-0 renal): 283 nM; TGI (786-0 renal): 1010 nM; GI50 (EKVX NSCLC): 295 nM; TGI (EKVX NSCLC): 1200 nM; GI50 (IGROV1 ovarian): 229 nM; TGI (IGROV1 ovarian): 574 nM; GI50 (HCC-2998 colon): 321 nM; TGI (HCC-2998 colon): 1140 nM; GI50 (CAKI-1 renal): 244 nM; TGI (CAKI-1 renal): 678 nM; GI50 (MDA-MB-435): 230 nM; TGI (MDA-MB-435): 547 nM; GI50 (A498 renal): 174 nM; TGI (A498 renal): 742 nM; GI50 (DU-145 prostate): 317 nM; TGI (DU-145 prostate): 1130 nM; GI50 (MDA-MB-231 breast): 219 nM; TGI (MDA-MB-231 breast): 557 nM; GI50 (HL-60(TB) leukemia): 2270 nM; TGI (HL-60(TB) leukemia): > 26.8 µM; GI50 (OVCAR-5 ovarian): 306 nM; TGI (OVCAR-5 ovarian): 1140 nM; GI50 (A549 NSCLC): 246 nM; TGI (A549 NSCLC): 653 nM; GI50 (SNB-75 CNS): 183 nM; TGI (SNB-75 CNS): 1010 nM; GI50 (SK-MEL-28 melanoma): 209 nM; TGI (SK-MEL-28 melanoma): 450 nM; GI50 (SN12C renal): 220 nM; TGI (SN12C renal): 576 nM; GI50 (SK-MEL-5 melanoma): 478 nM; TGI (SK-MEL-5 melanoma): 1870 nM; GI50 (HCT-116 colon): 321 nM; TGI (HCT-116 colon): 1690 nM; GI50 (SF-268 CNS): 344 nM; TGI (SF-268 CNS): 1450 nM; GI50 (COLO 205 colon): 291 nM; TGI (COLO 205 colon): 903 nM; GI50 (ACHN renal): 467 nM; TGI (ACHN renal): 3.86 µM; GI50 (HT29 colon): 347 nM; TGI (HT29 colon): 2110 nM; GI50 (CCRF-CEM leukemia): 518 nM; TGI (CCRF-CEM leukemia): > 35.4 µM; GI50 (NCI-H522 lung): 244 nM; TGI (NCI-H522 lung): 729 nM; GI50 (HCT-15 colon): 409 nM; TGI (HCT-15 colon): 1850 nM; GI50 (SNB-19 CNS): 301 nM; TGI (SNB-19 CNS): 1060 nM; GI50 (UACC-257 melanoma): 836 nM; TGI (UACC-257 melanoma): 3.23 µM; GI50 (SK-MEL-2 melanoma): 343 nM; TGI (SK-MEL-2 melanoma): 1290 nM; GI50 (T-47D breast): 257 nM; TGI (T-47D breast): 972 nM; GI50 (U251 CNS): 193 nM; TGI (U251 CNS): 414 nM; GI50 (UACC-62 melanoma): 205 nM; TGI (UACC-62 melanoma): 527 nM; GI50 (HS 578T breast): 230 nM; TGI (HS 578T breast): 678 nM; GI50 (OVCAR-3 ovarian): 280 nM; TGI (OVCAR-3 ovarian): 778 nM; GI50 (SR leukemia): 254 nM; TGI (SR leukemia): 898 nM; GI50 (SW-620 colon): 256 nM; TGI (SW-620 colon): 660 nM; GI50 (HOP-92 NSCLC): 180 nM; TGI (HOP-92 NSCLC): 450 nM; GI50 (M14 melanoma): 324 nM; TGI (M14 melanoma): 1270 nM; GI50 (NCI/ADR-RES ovarian): 3.61 µM; TGI (NCI/ADR-RES ovarian): > 100 µM; GI50 (UO-31 renal): 993 nM; TGI (UO-31 renal): 3.09 µM; GI50 (NCI-H226 lung): 227 nM; TGI (NCI-H226 lung): 601 nM; GI50 (BT-549 breast): 414 nM; TGI (BT-549 breast): 2430 nM; GI50 (MOLT-4 leukemia): 359 nM; TGI (MOLT-4 leukemia): 1790 nM; GI50 (NCI-H23 lung): 226 nM; TGI (NCI-H23 lung): 571 nM; GI50 (RPMI-8226 leukemia): 396 nM; TGI (RPMI-8226 leukemia): 2140 nM
